Data: PMC12881674, “Activation of TRPV3 channels in bladder cancer cells stimulates ATP release” (Molecular Pharmacology, 2025)

Biological target: T1, mouse TRPV3 (Mus musculus, UniProt Q8K424)
T1 construct: expressed in transfected cells; host or cells: HEK293
T1 sequence (Q8K424 1-791): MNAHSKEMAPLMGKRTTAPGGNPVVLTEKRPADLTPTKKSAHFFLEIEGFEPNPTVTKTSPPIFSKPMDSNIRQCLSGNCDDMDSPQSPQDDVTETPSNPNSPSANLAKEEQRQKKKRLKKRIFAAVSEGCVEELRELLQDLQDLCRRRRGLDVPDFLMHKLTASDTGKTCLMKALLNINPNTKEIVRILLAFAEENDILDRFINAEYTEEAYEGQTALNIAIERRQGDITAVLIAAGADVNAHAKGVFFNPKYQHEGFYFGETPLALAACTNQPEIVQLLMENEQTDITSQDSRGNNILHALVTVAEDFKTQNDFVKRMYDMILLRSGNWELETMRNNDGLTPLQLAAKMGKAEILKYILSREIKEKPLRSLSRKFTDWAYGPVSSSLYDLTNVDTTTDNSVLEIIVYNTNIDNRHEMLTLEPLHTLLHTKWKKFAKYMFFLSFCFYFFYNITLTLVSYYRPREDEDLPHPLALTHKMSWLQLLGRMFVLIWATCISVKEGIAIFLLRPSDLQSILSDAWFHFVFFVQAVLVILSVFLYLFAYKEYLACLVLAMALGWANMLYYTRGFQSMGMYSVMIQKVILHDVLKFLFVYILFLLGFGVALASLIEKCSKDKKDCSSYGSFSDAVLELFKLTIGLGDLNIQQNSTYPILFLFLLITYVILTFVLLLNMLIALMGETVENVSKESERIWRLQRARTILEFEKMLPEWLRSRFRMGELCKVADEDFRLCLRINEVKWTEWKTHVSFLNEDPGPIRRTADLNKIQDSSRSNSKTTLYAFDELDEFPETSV
Test: whole-cell patch-clamp recordings in HEKmTRPV3 cells
Format: cell-based
Description: Whole-cell patch-clamp recordings were performed at room temperature using an […] amplifier connected to a Digidata 1440A digitizer under the control of the pCLAMP 10 software suite (Molecular Devices). Cells were plated onto PLL-coated glass coverslips 24–48 hours prior to recordings. […] The extracellular buffer consisted of 140 mM NaCl, 5 mM CsCl, 2 mM MgCl2, 1 mM CaCl2, and 10 mM HEPES, adjusted to pH 7.4 with NaOH. Recordings were performed with a liquid junction potential of +3.6 mV, which was not corrected. Voltage ramps ranging from −100 to 100 mV (500-millisecond duration) were applied at 1-second intervals. Series resistance was <15 MΩ and compensated by 70%. Only recordings with stable access resistance and minimal leak currents were included in the analysis. […]
Fig. 2 Electrophysiological analysis of AV3-1–activated TRPV3 currents in HEKmTRPV3 cells. […] Current amplitudes were recorded using voltage ramps from −100 mV to +100 mV (500-millisecond duration) such as in B and expressed as current density (pA/pF) measured at +100 mV and −100 mV. […] (C) Quantification of current densities (pA/pF) at −100 mV (inward current) and +100 mV (outward current) at the time points (1, 6–8) as indicated in (A). […] Statistical significance was determined using Kruskal-Wallis ANOVA followed by Conover test; ∗P < .05. […]

For `COC(=O)C12CN(Cc3ccccc3)CC1(C(=O)OC)CN(Cc1ccccc1)C2` (centres unmarked) [AV3-1], the “TRPV3 currents evoked by activator” value (5 μM AV3-1, voltage ramps -100 to +100 mV) was “robust TRPV3-like currents” and the “reversibility of effect on TRPV3 upon washout” value (washout of 5 μM AV3-1) was “fully reversible”.
